Reference: patent publication US20230210797A1, “PREVENTING AND TREATING HYPOGLYCEMIA” (DIAMYD MEDICAL AB, priority 2019, published 2023)
“Also recorded” adds a separate entry of the source.

How the values were obtained:
[1] = tested on: growth hormone; assay: Hypoglycemic clamp: plasma growth hormone levels; type: in vivo, human; settings: for Growth hormone levels, change from baseline, Mean / Growth hormone levels, change from baseline, Median / Growth hormone levels, observed value, Mean / Growth hormone levels, observed value, Median: C-peptide undetectable, n=5
Method: (§1) In order to evaluate the counterregulatory hormone response to hypoglycemia, a hypoglycemic clamp will be performed. The Hypoglycemic Clamp must be performed according to the instructions in the Operations Manual. (Appendix 3)
(§2) The patient should: • Come to the study site following an overnight fast (>10 hours), i.e. the patient may not eat but is permitted to drink water • Not have taken the Remygen and, if applicable, Alprazolam dose in the morning • Not take short acting/direct acting insulin within 6 hours before the investigation. • The patient is allowed to take base-insulin day/night before, but not in the morning before the investigation.
(§3) Patients with CSII (insulin pump) must continue with their basal dose insulin, but not add bolus dose during the last 6 hours before the investigation.
(§4) If a patient has a blood sugar level <4 mmol/L in the morning of the scheduled visit, the patient is allowed to take dextrose tablets and then come to the study site. The patient is allowed to perform the investigation if the blood sugar level is >4 mmol/L.
(§5) In the dose-escalation part of the study, the patient will take study drug 30 min prior to start of the hypoglycemic clamp. In the main study, the study drug will instead be taken after finalization of the hypoglycemic clamp. Baseline blood samples will be obtained for glucose, glucagon, epinephrine, norepinephrine, growth hormone and cortisol. The clamp will then be initiated by an intravenous insulin infusion at a rate of 2 mU×kg^−1×min^−1. Glucose 100 mg/ml will then be administered in variable infusion rates to clamp the blood glucose concentration at 5.5 mmol/land then at 2.5 mmol/land kept stable for 30 min. Blood glucose will be evaluated repeatedly in order to find the optimal glucose infusion rate. Blood sampling to determined levels of counterregulatory hormones as described above will be performed at each of these target levels when a stable glucose concentration has been reached. The insulin infusion will thereafter be terminated and the patient is allowed to eat and will be observed until normoglycemia is achieved. If necessary, additional glucose administration will be given to allow blood glucose concentrations to normalize.
Plasma glucose was first lowered to normoglycemic levels (5.5 mmol/L) and hormone levels monitored, and then to hypoglycemic levels (2.5 mmol/L) and hormone levels monitored. Difference was calculated as a measurement of the response to hypoglycemia.

[2] = tested on: norepinephrine; assay: Hypoglycemic clamp: plasma norepinephrine levels; type: in vivo, human; settings: for Norepinephrine, change from baseline, Mean (SD) / Norepinephrine, change from baseline, Median (Min, Max) / Norepinephrine, observed value, Mean (SD) / Norepinephrine, observed value, Median (Min, Max): C-peptide undetectable, n=5
Method: as §1, §2, §3, §4, §5
Only patients with c-peptide levels that were undetectable (in a standard assay, i.e. <0.01 nmol/L) are included (5 of 6) in the data below.
Plasma levels of glucagon, cortisol, epinephrine, growth hormone and glucose were measured at baseline (increased glucose in T1D subjects). Plasma glucose was first lowered to normoglycemic levels (5.5 mmol/L) and hormone levels monitored, and then to hypoglycemic levels (2.5 mmol/L) and hormone levels monitored. Difference was calculated as a measurement of the response to hypoglycemia.

[3] = Visit 5, 200 mg GABA per day, event 2.5 mmol/L
[4] = Visit 5, 200 mg GABA per day, event 5.5 mmol/L
[5] = Visit 5, 200 mg GABA per day, event Baseline
[6] = Visit 5, 200 mg GABA per day, event Diff 2.5-5.5 mmol/L
[7] = Visit 7, 600 mg GABA per day, event 2.5 mmol/L
[8] = Visit 7, 600 mg GABA per day, event 5.5 mmol/L
[9] = Visit 7, 600 mg GABA per day, event Baseline
[10] = Visit 7, 600 mg GABA per day, event Diff 2.5-5.5 mmol/L
[11] = Visit 9, 1200 mg GABA per day, event 2.5 mmol/L
[12] = Visit 9, 1200 mg GABA per day, event 5.5 mmol/L
[13] = Visit 9, 1200 mg GABA per day, event Baseline
[14] = Visit 9, 1200 mg GABA per day, event Diff 2.5-5.5 mmol/L

Compound: NCCCC(=O)O [GABA, Gamma-amino butyric acid]
- Growth hormone levels, change from baseline, Mean [1, 3]: 4.560 µg/L
- Growth hormone levels, change from baseline, Median [1, 3]: 3.400 µg/L
- Growth hormone levels, observed value, Mean [1, 3]: 11.632 µg/L
- Growth hormone levels, observed value, Median [1, 3]: 4.000 µg/L
- Growth hormone levels, change from baseline, Mean [1, 4]: -0.802 µg/L
- Growth hormone levels, change from baseline, Median [1, 4]: 0.000 µg/L
- Growth hormone levels, observed value, Mean [1, 4]: 2.110 µg/L
- Growth hormone levels, observed value, Median [1, 4]: 0.070 µg/L
- Growth hormone levels, change from baseline, Mean [1, 5]: 0.475 µg/L
- Growth hormone levels, change from baseline, Median [1, 5]: 0.035 µg/L
- Growth hormone levels, observed value, Mean [1, 5]: 0.630 µg/L
- Growth hormone levels, observed value, Median [1, 5]: 0.080 µg/L
- Growth hormone levels, change from baseline, Mean [1, 6]: 5.362 µg/L
- Growth hormone levels, change from baseline, Median [1, 6]: 4.000 µg/L
- Growth hormone levels, observed value, Mean [1, 6]: 9.522 µg/L
- Growth hormone levels, observed value, Median [1, 6]: 3.440 µg/L
- Growth hormone levels, change from baseline, Mean [1, 7]: 10.068 µg/L
- Growth hormone levels, change from baseline, Median [1, 7]: 9.000 µg/L
- Growth hormone levels, observed value, Mean [1, 7]: 17.140 µg/L
- Growth hormone levels, observed value, Median [1, 7]: 11.700 µg/L
- Growth hormone levels, change from baseline, Mean [1, 8]: -1.812 µg/L
- Growth hormone levels, change from baseline, Median [1, 8]: -0.340 µg/L
- Growth hormone levels, observed value, Mean [1, 8]: 1.100 µg/L
- Growth hormone levels, observed value, Median [1, 8]: 0.160 µg/L
- Growth hormone levels, change from baseline, Mean [1, 9]: 2.098 µg/L
- Growth hormone levels, change from baseline, Median [1, 9]: 0.090 µg/L
- Growth hormone levels, observed value, Mean [1, 9]: 2.253 µg/L
- Growth hormone levels, observed value, Median [1, 9]: 0.140 µg/L
- Growth hormone levels, change from baseline, Mean [1, 10]: 11.880 µg/L
- Growth hormone levels, observed value, Mean [1, 10]: 16.040 µg/L
- Growth hormone levels, observed value, Median [1, 10]: 10.820 µg/L
- Growth hormone levels, change from baseline, Mean [1, 11]: 7.388 µg/L
- Growth hormone levels, change from baseline, Median [1, 11]: 7.900 µg/L
- Growth hormone levels, observed value, Mean [1, 11]: 14.460 µg/L
- Growth hormone levels, observed value, Median [1, 11]: 14.000 µg/L
- Growth hormone levels, change from baseline, Mean [1, 12]: -1.468 µg/L
- Growth hormone levels, change from baseline, Median [1, 12]: -0.210 µg/L
- Growth hormone levels, observed value, Mean [1, 12]: 1.444 µg/L
- Growth hormone levels, observed value, Median [1, 12]: 0.170 µg/L
- Growth hormone levels, change from baseline, Median [1, 13]: 0.100 µg/L
- Growth hormone levels, observed value, Mean [1, 13]: 0.461 µg/L
- Growth hormone levels, observed value, Median [1, 13]: 0.170 µg/L
- Growth hormone levels, change from baseline, Mean [1, 14]: 8.856 µg/L
- Growth hormone levels, change from baseline, Median [1, 14]: 6.900 µg/L
- Growth hormone levels, observed value, Mean [1, 14]: 13.016 µg/L
- Growth hormone levels, observed value, Median [1, 14]: 8.600 µg/L
- Counter regulatory response of Growth hormone, effect of GABA treatment ([1]; change in levels when clamping to 2.5 mmol/L from 5.5 mmol/L): increased
- Normoglycemic levels of Growth hormone, effect of GABA treatment ([1]; clamped to 5.5 mmol/L): decrease
- Norepinephrine, change from baseline, Mean (SD) [2, 3]: −0.44 (0.61) nmol(L
- Norepinephrine, change from baseline, Median (Min, Max) [2, 3]: −0.30 (−1.3, 0.2) nmol(L
- Norepinephrine, observed value, Mean (SD) [2, 3]: 1.82 (0.41) nmol(L
- Norepinephrine, observed value, Median (Min, Max) [2, 3]: 1.90 (1.4, 2.3) nmol(L
- Norepinephrine, change from baseline, Mean (SD) [2, 4]: −0.16 (0.52) nmol(L
- Norepinephrine, change from baseline, Median (Min, Max) [2, 4]: 0.00 (−0.9, 0.5) nmol(L
- Norepinephrine, observed value, Mean (SD) [2, 4]: 1.78 (0.52) nmol(L
- Norepinephrine, observed value, Median (Min, Max) [2, 4]: 1.60 (1.2, 2.5) nmol(L
- Norepinephrine, change from baseline, Mean (SD) [2, 5]: −0.34 (0.53) nmol(L
- Norepinephrine, change from baseline, Median (Min, Max) [2, 5]: −0.50 (−0.9, 0.5) nmol(L
- Norepinephrine, observed value, Mean (SD) [2, 5]: 1.46 (0.35) nmol(L
- Norepinephrine, observed value, Median (Min, Max) [2, 5]: 1.50 (1.1, 2.0) nmol(L
- Norepinephrine, change from baseline, Mean (SD) [2, 6]: −0.28 (0.59) nmol(L
- Norepinephrine, change from baseline, Median (Min, Max) [2, 6]: 0.00 (−1.3, 0.1) nmol(L
- Norepinephrine, observed value, Mean (SD) [2, 6]: 0.04 (0.29) nmol(L
- Norepinephrine, observed value, Median (Min, Max) [2, 6]: 0.20 (−0.4, 0.3) nmol(L
- Norepinephrine, change from baseline, Mean (SD) [2, 7]: −0.56 (0.73) nmol(L
- Norepinephrine, change from baseline, Median (Min, Max) [2, 7]: −0.50 (−1.6, 0.3) nmol(L
- Norepinephrine, observed value, Mean (SD) [2, 7]: 1.70 (0.27) nmol(L
- Norepinephrine, observed value, Median (Min, Max) [2, 7]: 1.70 (1.4, 2.1) nmol(L
- Norepinephrine, change from baseline, Mean (SD) [2, 8]: −0.10 (0.31) nmol(L
- Norepinephrine, change from baseline, Median (Min, Max) [2, 8]: −0.10 (−0.4, 0.3) nmol(L
- Norepinephrine, observed value, Mean (SD) [2, 8]: 1.84 (0.34) nmol(L
- Norepinephrine, observed value, Median (Min, Max) [2, 8]: 2.00 (1.3, 2.1) nmol(L
- Norepinephrine, change from baseline, Mean (SD) [2, 9]: −0.32 (0.49) nmol(L
- Norepinephrine, change from baseline, Median (Min, Max) [2, 9]: −0.30 (−0.9, 0.4) nmol(L
- Norepinephrine, observed value, Mean (SD) [2, 9]: 1.48 (0.70) nmol(L
- Norepinephrine, observed value, Median (Min, Max) [2, 9]: 1.20 (1.0, 2.7) nmol(L
- Norepinephrine, change from baseline, Mean (SD) [2, 10]: −0.46 (0.50) nmol(L
- Norepinephrine, change from baseline, Median (Min, Max) [2, 10]: −0.50 (−1.2, 0.0) nmol(L
- Norepinephrine, observed value, Mean (SD) [2, 10]: −0.14 (0.27) nmol(L
- Norepinephrine, observed value, Median (Min, Max) [2, 10]: −0.30 (−0.4, 0.2) nmol(L
- Norepinephrine, change from baseline, Mean (SD) [2, 11]: −0.66 (0.68) nmol(L
- Norepinephrine, change from baseline, Median (Min, Max) [2, 11]: −0.70 (−1.6, 0.0) nmol(L
- Norepinephrine, observed value, Mean (SD) [2, 11]: 1.60 (0.42) nmol(L
- Norepinephrine, observed value, Median (Min, Max) [2, 11]: 1.60 (1.2, 2.2) nmol(L
- Norepinephrine, change from baseline, Mean (SD) [2, 12]: −0.46 (0.84) nmol(L
- Norepinephrine, change from baseline, Median (Min, Max) [2, 12]: −0.20 (−1.7, 0.4) nmol(L
- Norepinephrine, observed value, Mean (SD) [2, 12]: 1.48 (0.50) nmol(L
- Norepinephrine, observed value, Median (Min, Max) [2, 12]: 1.40 (0.8, 2.2) nmol(L
- Norepinephrine, change from baseline, Mean (SD) [2, 13]: −0.58 (0.59) nmol(L
- Norepinephrine, change from baseline, Median (Min, Max) [2, 13]: −0.50 (−1.3, 0.2) nmol(L
- Norepinephrine, observed value, Mean (SD) [2, 13]: 1.22 (0.35) nmol(L
- Norepinephrine, observed value, Median (Min, Max) [2, 13]: 1.00 (0.9, 1.6) nmol(L
- Norepinephrine, change from baseline, Mean (SD) [2, 14]: −0.20 (0.55) nmol(L
- Norepinephrine, change from baseline, Median (Min, Max) [2, 14]: −0.40 (−0.7, 0.7) nmol(L
- Norepinephrine, observed value, Mean (SD) [2, 14]: 0.12 (0.41) nmol(L
- Norepinephrine, observed value, Median (Min, Max) [2, 14]: 0.00 (−0.2, 0.8) nmol(L
- Normoglycemic levels of norepinephrine, effect of GABA treatment ([2]; clamped to 5.5 mmol/L): decrease
- Baseline (no clamp) norepinephrine levels, effect of GABA treatment ([2]; dose escalation part, oral GABA, type 1 diabetes patients with undetectable c-peptide): downregulated; also recorded: decrease
